In patent US8748429B2, “CGRP receptor antagonists” (Bristol-Myers Squibb Company, priority 2011, dated 2014):

target: Human CGRP Receptor (Homo sapiens, UniProt O60894+Q16602); experiment: Human CGRP Binding
Sequence (Q16602 23-461): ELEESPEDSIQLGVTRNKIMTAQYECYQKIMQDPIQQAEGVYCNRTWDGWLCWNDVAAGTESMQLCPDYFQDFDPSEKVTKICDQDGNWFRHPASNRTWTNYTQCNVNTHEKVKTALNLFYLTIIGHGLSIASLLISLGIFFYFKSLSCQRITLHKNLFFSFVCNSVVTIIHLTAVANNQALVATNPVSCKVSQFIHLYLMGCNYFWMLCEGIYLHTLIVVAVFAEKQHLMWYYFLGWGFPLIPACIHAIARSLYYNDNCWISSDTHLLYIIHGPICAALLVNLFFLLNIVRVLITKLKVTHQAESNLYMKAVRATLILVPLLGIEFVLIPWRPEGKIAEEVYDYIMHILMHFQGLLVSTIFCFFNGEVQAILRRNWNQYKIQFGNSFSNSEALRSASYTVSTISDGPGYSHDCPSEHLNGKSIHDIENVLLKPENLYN
Sequence (O60894 27-148): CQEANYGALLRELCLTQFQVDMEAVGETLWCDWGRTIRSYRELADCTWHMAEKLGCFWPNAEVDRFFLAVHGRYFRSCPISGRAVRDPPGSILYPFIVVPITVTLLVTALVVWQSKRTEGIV

First: N[C@@H]1c2nccnc2[C@H](NC(=O)N2CCC(n3c(=O)[nH]c4ncccc43)CC2)CC[C@H]1c1cccc(F)c1F [Example 7, N-((5R,8S,9S)-9-amino-8-(2,3-difluorophenyl)-6,7,8,9-tetrahydro-5H-cyclohepta[b]pyrazin-5-yl)-4-(2-oxo-2,3-dihydro-1H-imidazo[4,5-b]pyridin-1-yl)piperidine-1-carboxamide]
Second: N[C@@H]1c2nccnc2[C@H](OC(=O)N2CCC(n3c(=O)[nH]c4ncccc43)CC2)CC[C@H]1c1cccc(F)c1F [Example 4, (5R,8S,9S)-9-amino-8-(2,3-difluorophenyl)-6,7,8,9-tetrahydro-5H-cyclohepta[b]pyrazin-5-yl 4-(2-oxo-2,3-dihydro-1H-imidazo[4,5-b]pyridin-1-yl)piperidine-1-carboxylate]
The IC50 of the first is 10-fold higher: 1.1 nM for the first, 0.11 nM for the second.

CC(C)(C)OC(=O)N[C@@H]1c2nccnc2C(CC(=O)N2CCC(n3c(=O)[nH]c4ncccc43)CC2)=CC[C@H]1c1cccc(F)c1F [Example 1, tert-butyl (5S,6S,Z)-6-(2,3-difluorophenyl)-9-(2-oxo-2-(4-(2-oxo-2,3-dihydro-1H-imidazo[4,5-b]pyridin-1-yl)piperidin-1-yl)ethyl)-6,7-dihydro-5H-cyclohepta[b]pyrazin-5-ylcarbamate] and N[C@@H]1c2nccnc2C(CC(=O)N2CCC(n3c(=O)[nH]c4ncccc43)CC2)=CC[C@H]1c1cccc(F)c1F [Example 2, 1-(1-(2-((5S,6S,Z)-5-amino-6-(2,3-difluorophenyl)-6,7-dihydro-5H-cyclohepta[b]pyrazin-9-yl)acetyl)piperidin-4-yl)-1H-imidazo[4,5-b]pyridin-2(3H)-one] are within 1.5-fold of each other in IC50: 570 nM for the first, 470 nM for the second.

N[C@@H]1c2scnc2[C@H](OC(=O)N2CCC(n3c(=O)[nH]c4ncccc43)CC2)CC[C@H]1c1cccc(F)c1F [Example 8, (4R,7S,8S)-8-amino-7-(2,3-difluorophenyl)-5,6,7,8-tetrahydro-4H-cyclohepta[d]thiazol-4-yl 4-(2-oxo-2,3-dihydro-1H-imidazo[4,5-b]pyridin-1-yl)piperidine-1-carboxylate] and N[C@@H]1c2sc(C(F)(F)F)nc2[C@H](OC(=O)N2CCC(n3c(=O)[nH]c4ncccc43)CC2)CC[C@H]1c1cccc(F)c1F [Example 9, (4R,7S,8S)-8-amino-7-(2,3-difluorophenyl)-2-(trifluoromethyl)-5,6,7,8-tetrahydro-4H-cyclohepta[d]thiazol-4-yl 4-(2-oxo-2,3-dihydro-1H-imidazo[4,5-b]pyridin-1-yl)piperidine-1-carboxylate] are within 1.5-fold of each other in IC50: 0.095 nM for the first, 0.13 nM for the second.

First: CC(C)(C)OC(=O)N[C@@H]1c2nccnc2[C@H](NC(=O)N2CCC(n3c(=O)n(COCC[Si](C)(C)C)c4ncccc43)CC2)CC[C@H]1c1cccc(F)c1F [Example 6, tert-butyl (5S,6S,9R)-6-(2,3-difluorophenyl)-9-(4-(2-oxo-3-((2-(trimethylsilyl)ethoxy)methyl)-2,3-dihydro-1H-imidazo[4,5-b]pyridin-1-yl)piperidine-1-carboxamido)-6,7,8,9-tetrahydro-5H-cyclohepta[b]pyrazin-5-ylcarbamate]
Second: CC(C)(C)OC(=O)N[C@@H]1c2nccnc2[C@H](NC(=O)N2CCC(n3c(OCOCC[Si](C)(C)C)nc4ncccc43)CC2)CC[C@H]1c1cccc(F)c1F [Example 5, tert-butyl (5S,6S,9R)-6-(2,3-difluorophenyl)-9-(4-(2-((2-(trimethylsilyl)ethoxy)methoxy)-1H-imidazo[4,5-b]pyridin-1-yl)piperidine-1-carboxamido)-6,7,8,9-tetrahydro-5H-cyclohepta[b]pyrazin-5-ylcarbamate]
The IC50 of the first is 12-fold higher: 910 nM for the first, 74 nM for the second.

Compound CC(C)(C)OC(=O)N[C@@H]1c2nccnc2[C@H](OC(=O)N2CCC(n3c(=O)[nH]c4ncccc43)CC2)CC[C@H]1c1cccc(F)c1F [Example 3, (5R,8S,9S)-9-(tert-butoxycarbonylamino)-8-(2,3-difluorophenyl)-6,7,8,9-tetrahydro-5H-cyclohepta[b]pyrazin-5-yl 4-(2-oxo-2,3-dihydro-1H-imidazo[4,5-b]pyridin-1-yl)piperidine-1-carboxylate] has an IC50 of 1.1 nM.
